# Earlier results, collected in patent publication US4717569A, “Unit dosage form of sparingly soluble medicaments” (Sterling Drug Inc., priority 1984, dated 1988).
# Key:
# [1] = tested on: pituitary gonadotrophins; settings: in patients, background
# [2] = in patients, background
# [3] = pH 6.0-7.0, intestinal juices
solubility at intestinal pH [3],SMILES,effect on pituitary gonadotrophins [1],oestrogenic or progestational activity [2]
–,"C#C[C@]1(O)CC[C@H]2[C@@H]3CCC4=Cc5oncc5C[C@]4(C)[C@H]3CC[C@@]21C [Compound A, 17α-pregna-2,4-diene-20-yno[2,3-d]isoxazol-17-ol]",inhibits the synthesis or release of pituitary gonadotrophins,without exhibiting oestrogenic or progestational activity
insoluble,OCCN(CCO)c1nc(N2CCCCC2)c2nc(N(CCO)CCO)nc(N3CCCCC3)c2n1 [dipyridamole],–,–
